# Data reported in ChEMBL document CHEMBL4043188, “Structural characterization of a new steroidal saponin from Agave angustifolia var. Marginata and a preliminary investigation of its in vivo antiulcerogenic activity and in vitro membrane permeability property” (Bioorg Med Chem Lett, 2017).
# Activity calls are given as the source filed them. The rule behind the calls is not given here.
# System: Mus musculus
# Assay: Antiulcerogenic activity against acidified ethanol induced-gastric lesions in Swiss mouse at 100 mg/kg, po administered 1 hr prior to acidified ethanol challenge measured after 1 hr
# Format: functional, organism-based
row,SMILES,Activity
1,C[C@@H]1CC[C@@]2(OC1)O[C@H]1C[C@H]3[C@@H]4C[C@H](O)[C@H]5C[C@@H](O[C@@H]6O[C@H](CO)[C@H](O[C@@H]7O[C@H](CO)[C@@H](O)[C@H](O[C@@H]8O[C@H](CO)[C@@H](O[C@@H]9O[C@@H](C)[C@H](O)[C@@H](O)[C@H]9O)[C@H](O)[C@H]8O)[C@H]7O[C@@H]7O[C@H](CO)[C@@H](O)[C@H](O[C@@H]8O[C@H](CO)[C@@H](O)[C@H](O)[C@H]8O)[C@H]7O)[C@H](O)[C@H]6O)CC[C@]5(C)[C@H]4CC(=O)[C@]3(C)[C@H]1[C@@H]2C,Active
2,CO[C@]1(CC[C@@H](C)CO[C@H]2O[C@@H](CO)[C@H](O)[C@@H](O)[C@@H]2O)O[C@H]2C[C@H]3[C@@H]4CC[C@H]5C[C@@H](O[C@@H]6O[C@H](CO)[C@H](O[C@@H]7O[C@H](CO)[C@@H](O)[C@H](O[C@@H]8O[C@H](CO)[C@@H](O)[C@H](O[C@@H]9O[C@H](CO)[C@@H](O)[C@H](O)[C@H]9O)[C@H]8O)[C@H]7O[C@@H]7OC[C@@H](O[C@@H]8O[C@@H](C)[C@H](O)[C@@H](O)[C@H]8O)[C@H](O)[C@H]7O)[C@H](O)[C@H]6O)CC[C@]5(C)[C@H]4CC[C@]3(C)[C@H]2[C@@H]1C,Active
